From publication PMC2118091 (The Journal of Experimental Medicine, 2006)

Legend:
IgM CM-22 [1] = assay: SPR analysis of peptide binding to IgM CM-22; design: species or system mouse
WT mice = assay: Intestinal RI model in WT mice, pathology score; assay type: in vivo, mouse; settings: final serum concentration, i.v. 5 min before reperfusion
[2] = system: IgM, complement C4 and C3; assay: Immunohistology of IgM, C4 and C3 deposition after intestinal RI in WT mice; assay type: in vivo, mouse; settings: RI-treated WT mice given P8 peptide; unpublished data
IgM CM-22 [3] = assay: Titration of P8 peptide with IgM CM-22; design: species or system mouse; settings: 200 μg IgM CM-22 (0.1–0.2 μM); unpublished data
complement C3 = settings: pretreatment of rats, myocardial infarction model; cited from earlier work

AGCMPYVRIPTA [control peptide, reference compound]
binding to IgM CM-22 surface (IgM CM-22 [1]; SPR, PBS, 25°C, control peptide injected at 117 μM): no binding

NGNNVNGNRNNN [P8 peptide]
protective concentration in intestinal RI (WT mice): 10 µM | IgM, C4 and C3 deposition within microvilli [2]: colocalized within microvilli of RI-treated WT mice but not in mice administered P8 peptide | CM-22 binding affinity relative to N2 (IgM CM-22 [1]; comparison in words, no KD printed for P8): higher CM-22 binding affinity relative to N2 | optimal peptide concentration sufficient to block IgM CM-22 (IgM CM-22 [3]): ~10 µM

sCR1: specific soluble inhibitor of complement C3 (sCR1)
myocardial injury (complement C3): dramatically reduced injury
